In paper PMC12639566, “Identification of antimalarial drugs and bradykinin as ligands of the Plasmodium membrane protein PfSR10” (iScience, 2025):
Peptide text beside a SMILES is read from it.

Columns and labels:
PfSR10 [1] = biological target: T1, PfSR10 (Plasmodium falciparum, UniProt Q8I5P8); experiment: Gi1-Gγ dissociation BRET assay in PfSR10-overexpressing HEK293 cells; format: cell-based; conditions: G protein dissociation assay
Text: (§1) To characterize the G protein signalling properties of PfSR10, G protein BRET probes were generated according to previous publication.[50] The Gqo BRET probes were generated by replacing the six amino acids of the C- terminus of Gq -RlucII with those from GoA1, creating a chimeric Gqo-RlucII subunit.[51] HEK293 cells or COS-7 cells were co-transfected with PfSR10 and various G protein probes (Gi, Gq and Gqo). Forty-eight hours post-transfection, cells were washed twice with HBSS, resuspended with HBSS buffer, and seeded into a 96-well plate at a density of 5x10^4 per well. After adding increasing concentrations of ligand (CQ, DHA, PIP-TT, PQ, Bradykinin, des-Arg9-bradykinin, bradykinin-Arg-FITC, FITC-bradykinin) together with luciferase substrate coelenterazine 400a (5 μM, Cayman), the BRET signals between […] (440-480 nm) and GFP2 (510 nm) emissions were examined by a Mithras LB 940 Multimode Microplate Reader (Berthold Technologies). The BRET signal was calculated as the ratio of the GFP2 emission to Nluc emission.

PfSR10 [2] = biological target: T1, PfSR10; experiment: FlAsH-BRET assay of PfSR10 extracellular conformational changes; format: cell-based; conditions: for ECL1 movement relative to the PfSR10 N-terminus: concentration-dependent
Description: To characterize the binding properties of different ligands (CQ, DHA, PIP-TT, PQ, bradykinin or des-Arg9-bradykinin) to PfSR10, a FlAsH BRET assay was performed as previously described.[29]^,[32]^,[49] We seeded HEK293 cells or COS-7 cells in 6-well plate were transfected with PfSR10 FlAsH BRET sensors (S1 to S6 as indicated in Figure 4B) and incubated for 48 h at 37°C in 5% CO2. The overexpressed PfSR10 sensors cells were washed with FlAsH BRET buffer (25 mM HEPES, 1 mM CaCl2, 140 mM NaCl, 2.7 mM KCl, 0.9 mM MgCl2, 0.37 mM NaH2PO4, 5.5 mM D-glucose, 12 mM NaHCO3) and incubated with 2.5 μM FlLAsH EDT2 (pre-diluted in FLAsH BRET buffer) for 40min at 37°C in 5% CO2. The cells were washed twice, resuspended with FlAsH BRET buffer, and seeded into a 96-well plate at a density of 5x10^4 per well. After adding increasing concentrations of ligand (CQ, DHA, PIP-TT, PQ, bradykinin or des-Arg9-bradykinin) together with luciferase substrate coelenterazine-h (5 μM), the BRET signals between Nluc (440-480 nm) and FlAsH fluorescent moiety (525-585 nm) emissions were examined by a Mithras LB 940 Multimode Microplate Reader.

PfSR10 [3] = biological target: T1, PfSR10; experiment: GloSensor-cAMP assay, inhibition of forskolin-induced cAMP in PfSR10-overexpressing HEK293 cells; format: cell-based; conditions: for Fsk-induced cAMP level elevation (in words): PfSR10-overexpressing HEK293 cells, concentration-dependent; for cAMP inhibition Emax: HEK293 cells overexpressing PfSR10, mean ± SEM
Description: (§2) To examine the constitutive activity of PfSR10, we transfected HEK293 cells with different concentrations of the receptor, including PfSR10, ADGRG2, ADGRG3. For measuring the anti-malarial drugs, bradykinin or des-Arg9-bradykinin-induced inhibition of forskolin-stimulated cAMP level in HEK293 cells or COS-7 cells, the receptor encoding plasmid (PfSR10 or its mutants) or empty plasmid (pcDNA3.1) was co-transfected with the GloSensor plasmid and incubated in an incubator at 37°C with 5% CO2 for 24 h. The transfected cells were then inoculated on 96-well plates (at a density of 4 × 10^4 / well) and incubated in incubators under the same conditions for another 24 hours. Cells were precultured with serum-free medium (Gibco) containing 5% DILUTED GloSensor™cAMP reagent Reserve solution (Progema) for 2 h. The base cAMP signal was directly measured using a multimode tablet reader (PerkinElmer Envision). At the same time, the cAMP signal induced by DHA, PIP-TT, PQ, CQ bradykinin or des-Arg9-bradykinin was detected after adding agonists into the corresponding Wells. Finally, the s-shaped dose response function in GraphPad Prism 7.0 was used to analyze the data.

PfSR10 [4] = biological target: T1, PfSR10; experiment: Gq-Gγ dissociation BRET assay in PfSR10-overexpressing HEK293 cells; format: cell-based
Text: as §1

Plasmodium falciparum [5] = experiment: IP3 ELISA in isolated parasites at trophozoite stage; format: cell-based; conditions: 10 μM DHA, 1 h, compared with untreated group
Description: To measure the IP3 levels in the Plasmodium falciparum. P. falciparum parasites were collected as described above. In brief, after 1 h-treatment 1h with 10 μM of DHA, P. falciparum parasites were isolated at the trophozoite stage and washed twice with PBS. Then P. falciparum parasites were disrupted repeatedly by freeze-thaw, sedimented by centrifugation at 600 g for 10 min at 4°C. The supernatant was collected and IP3 levels were determined using IP3 ELISA Kit (Hengyuan Biotechnology, Shanghai) according to manufacturer’s instructions.

SR10 [6] = experiment: GloSensor-cAMP assay in HEK293 cells overexpressing P. knowlesi SR10; format: cell-based; conditions: one of the two other Plasmodium species
SR10 [7] = experiment: GloSensor-cAMP assay in HEK293 cells overexpressing P. vivax SR10; format: cell-based; conditions: one of the two other Plasmodium species
PbSR10 [8] = biological target: T2, PbSR10 (Plasmodium berghei, UniProt A0A509AUP3); experiment: GloSensor-cAMP assay in HEK293 cells overexpressing PbSR10; format: cell-based
PcSR10 = PcSR10 (Plasmodium chabaudi, UniProt A0A4V0KCI5); experiment: GloSensor-cAMP assay in HEK293 cells overexpressing PcSR10; format: cell-based
PbSR10 [9] = biological target: T2, PbSR10; experiment: Gi protein trimer dissociation assay in HEK293 cells overexpressing PbSR10; format: cell-based
PfSR10 mutants = experiment: GloSensor-cAMP assay with site-directed PfSR10 mutants; format: cell-based, Plasmodium falciparum
Description: as §2

PySR10 = PySR10 (Plasmodium yoelii, UniProt V7PQD6); experiment: GloSensor-cAMP assay in HEK293 cells overexpressing PySR10; format: cell-based
Plasmodium falciparum [10] = experiment: cAMP ELISA in isolated parasites at trophozoite stage stimulated with Fsk; format: cell-based; conditions: 10 μM DHA, 3 μM Fsk, compared with untreated group
Description: For determination of the cAMP levels in the Plasmodium falciparum, P. falciparum-infected human erythrocyte s at trophozoite stage, synchronized with sorbitol as previously described.[47] The P. falciparum-infected cells were subject to the 10 μM DHA treatment or not for 1 h after synchronization in the presence of 3 μM of Fsk. P. falciparum parasites were isolated at the trophozoite stage.[48] P. falciparum parasites were washed twice with PBS and resuspended at a concentration of 5×10^6 cells/ml^-1 in the same buffer and incubated for 15 min with 10 μM DHA in the presence 300 nM IBMX to prevent cAMP degradation. After treatment, P. falciparum parasites were disrupted repeatedly by freeze-thaw, sedimented by centrifugation at 600 g for 10 min at 4°C and the supernatant was collected and subjected to cAMP measurement using cAMP ELISA Kit (R&D systems) according to manufacturer’s instructions.

PfSR10 [11] = biological target: T1, PfSR10; experiment: cAMP inhibition in PfSR10-overexpressing COS-7 cells; format: cell-based; conditions: read-out: EC50 in COS-7 cell
Description: as §2

T2 sequence (A0A509AUP3 entry or part of it): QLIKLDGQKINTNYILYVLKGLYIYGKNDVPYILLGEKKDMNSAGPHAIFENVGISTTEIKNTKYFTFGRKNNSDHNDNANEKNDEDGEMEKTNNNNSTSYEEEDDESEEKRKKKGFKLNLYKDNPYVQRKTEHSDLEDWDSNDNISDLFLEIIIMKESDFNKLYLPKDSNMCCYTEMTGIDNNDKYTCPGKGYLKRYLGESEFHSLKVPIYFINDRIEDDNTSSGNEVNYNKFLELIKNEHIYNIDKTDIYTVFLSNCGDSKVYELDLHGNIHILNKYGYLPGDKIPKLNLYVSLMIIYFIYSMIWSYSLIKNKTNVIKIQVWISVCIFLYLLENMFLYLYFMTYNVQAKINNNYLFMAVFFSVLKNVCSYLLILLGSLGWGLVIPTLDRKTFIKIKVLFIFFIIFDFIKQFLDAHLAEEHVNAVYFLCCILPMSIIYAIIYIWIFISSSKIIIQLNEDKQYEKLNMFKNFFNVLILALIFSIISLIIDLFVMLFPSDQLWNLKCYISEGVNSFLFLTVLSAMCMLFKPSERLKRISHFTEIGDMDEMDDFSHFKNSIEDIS
T1 sequence (Q8I5P8 entry or part of it): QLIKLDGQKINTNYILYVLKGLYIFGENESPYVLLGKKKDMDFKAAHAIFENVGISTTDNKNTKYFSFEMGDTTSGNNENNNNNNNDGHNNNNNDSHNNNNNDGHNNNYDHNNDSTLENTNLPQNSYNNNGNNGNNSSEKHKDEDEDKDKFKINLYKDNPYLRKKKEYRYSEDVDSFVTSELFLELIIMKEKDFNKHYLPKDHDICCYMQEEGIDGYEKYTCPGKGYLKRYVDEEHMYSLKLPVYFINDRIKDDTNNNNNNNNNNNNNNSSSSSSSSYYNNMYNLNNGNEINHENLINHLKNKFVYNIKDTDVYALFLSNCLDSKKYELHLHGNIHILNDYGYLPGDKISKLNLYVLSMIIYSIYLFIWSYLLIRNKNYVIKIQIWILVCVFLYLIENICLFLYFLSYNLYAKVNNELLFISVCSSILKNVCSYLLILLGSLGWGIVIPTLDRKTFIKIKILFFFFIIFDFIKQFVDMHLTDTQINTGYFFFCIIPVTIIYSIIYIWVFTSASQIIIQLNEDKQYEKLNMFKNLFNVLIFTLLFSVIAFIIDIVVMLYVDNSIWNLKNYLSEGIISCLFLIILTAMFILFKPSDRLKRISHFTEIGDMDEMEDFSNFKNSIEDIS
Chain of PcSR10 (A0A4V0KCI5 entry or part of it): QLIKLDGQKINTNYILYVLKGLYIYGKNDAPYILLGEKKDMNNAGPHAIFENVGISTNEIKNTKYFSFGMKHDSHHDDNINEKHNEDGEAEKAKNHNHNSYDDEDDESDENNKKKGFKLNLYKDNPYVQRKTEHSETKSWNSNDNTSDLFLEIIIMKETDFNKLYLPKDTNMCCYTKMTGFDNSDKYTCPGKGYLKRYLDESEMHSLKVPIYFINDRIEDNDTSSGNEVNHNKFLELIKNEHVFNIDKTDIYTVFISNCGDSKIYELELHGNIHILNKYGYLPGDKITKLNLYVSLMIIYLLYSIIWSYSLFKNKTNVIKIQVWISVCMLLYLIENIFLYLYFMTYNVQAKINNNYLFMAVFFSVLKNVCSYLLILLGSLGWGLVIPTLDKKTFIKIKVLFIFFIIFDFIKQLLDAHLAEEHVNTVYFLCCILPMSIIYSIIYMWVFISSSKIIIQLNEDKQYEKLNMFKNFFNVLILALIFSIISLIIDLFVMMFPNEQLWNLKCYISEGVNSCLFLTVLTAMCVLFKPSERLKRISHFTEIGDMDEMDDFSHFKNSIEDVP
Chain of PySR10 (V7PQD6 entry or part of it): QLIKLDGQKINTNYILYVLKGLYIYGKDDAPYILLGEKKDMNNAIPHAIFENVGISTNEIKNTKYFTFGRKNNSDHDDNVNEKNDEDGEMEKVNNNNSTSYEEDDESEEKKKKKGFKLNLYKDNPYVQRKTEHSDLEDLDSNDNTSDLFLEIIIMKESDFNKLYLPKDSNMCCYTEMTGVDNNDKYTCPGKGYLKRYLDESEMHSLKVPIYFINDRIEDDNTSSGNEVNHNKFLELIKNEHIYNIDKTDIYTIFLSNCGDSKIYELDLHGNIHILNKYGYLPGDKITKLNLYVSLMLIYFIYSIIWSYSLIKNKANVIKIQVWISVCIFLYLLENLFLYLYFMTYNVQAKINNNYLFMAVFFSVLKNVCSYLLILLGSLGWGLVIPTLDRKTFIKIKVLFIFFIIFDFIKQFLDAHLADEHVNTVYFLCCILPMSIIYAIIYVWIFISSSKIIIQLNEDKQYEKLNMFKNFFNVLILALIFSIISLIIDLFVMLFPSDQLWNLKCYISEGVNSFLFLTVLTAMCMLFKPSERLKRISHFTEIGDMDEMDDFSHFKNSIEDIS

**Q.** What does the source list for `N=C(N)NCCC[C@H](NC(=O)[C@H](Cc1ccccc1)NC(=O)[C@@H]1CCCN1C(=O)[C@H](CO)NC(=O)[C@H](Cc1ccccc1)NC(=O)CNC(=O)[C@@H]1CCCN1C(=O)[C@@H]1CCCN1C(=O)[C@@H](N)CCCNC(=N)N)C(=O)O` [bradykinin] (H-RPPGFSPFR-OH)?
**A.** Gi1 coupling with PfSR10 (in words) (PfSR10 [1]): promoted Gi1 coupling to PfSR10; ECL movements of PfSR10 by FlAsH-BRET sensors (kinin peptides) (PfSR10 [2]): movement of ECL1 and ECL3 toward the N-terminus and separation of the ECL2 region and N-terminus of PfSR10; Fsk-induced cAMP level elevation (in words) (PfSR10 [3]): significantly inhibited; Gq dissociation signal (in words) (PfSR10 [4]; PfSR10-overexpressing cells): remarkable reduction

**Q.** For `C[C@H]1[C@@H](O)O[C@@H]2O[C@@]3(C)CC[C@H]4[C@H](C)CC[C@@H]1[C@@]24OO3` [DHA, dihydroartemisinin], which “IP3 concentration in the malaria parasite” value (Plasmodium falciparum [5]) is on record?
**A.** Its value is “significantly increased”.

**Q.** And the “ECL1 movement relative to the PfSR10 N-terminus” value (PfSR10 [2])?
**A.** Its value is “inward movement of ECL1 toward the PfSR10 N-terminus”.

**Q.** And the “cAMP response via SR10 of P. knowlesi” value (SR10 [6])?
**A.** Its value is “no response”.

**Q.** And the “cAMP response via SR10 of P. vivax” value (SR10 [7])?
**A.** Its value is “no response”.

**Q.** What about the EC50 (PbSR10 [8]) of the same compound?
**A.** Its EC50 is 12.3 ± 4.75 nM.

**Q.** What about the EC50 (PcSR10) of the same compound?
**A.** The EC50 was 37.6 ± 15.5 nM.

**Q.** What about the “Gi dissociation downstream of PbSR10” value (PbSR10 [9]) of the same compound?
**A.** Its value is “promoted Gi dissociation”.

**Q.** What about the “effect of mutation on DHA potency, PfSR10 C454F” value (PfSR10 mutants; mutant C454F vs wild type) of the same compound?
**A.** The value was “minimal effects”.

**Q.** What about the “effect of mutation on DHA-induced cAMP inhibition, PfSR10 L587M” value (PfSR10 mutants; mutant L587M vs wild type) of the same compound?
**A.** The value was “significantly impaired”.

**Q.** What about the “effect of mutation on DHA-induced cAMP inhibition, PfSR10 N595S” value (PfSR10 mutants; mutant N595S vs wild type) of the same compound?
**A.** Its value is “significantly impaired”.

**Q.** And the “effect of mutation on DHA-induced cAMP inhibition, PfSR10 T513A” value (PfSR10 mutants; mutant T513A vs wild type)?
**A.** Its value is “significantly impaired”.

**Q.** What about the “effect of mutation on DHA potency, PfSR10 T528S” value (PfSR10 mutants; mutant T528S vs wild type) of the same compound?
**A.** The value was “minimal effects”.

**Q.** And the EC50 (PySR10)?
**A.** The EC50 was 36.6 ± 6.78 nM.

**Q.** What about the EC50 (PfSR10 [3]) of the same compound?
**A.** Its EC50 is 3.94 ± 1.6 nM.

**Q.** What about the “cAMP inhibition Emax” value (PfSR10 [3]) of the same compound?
**A.** The value was 1.136 ± 0.06 × 10^3.

**Q.** What about the “Fsk-stimulated cAMP in the malaria parasite” value (Plasmodium falciparum [10]) of the same compound?
**A.** The value was “inhibited”.

**Q.** And the EC50 (PfSR10 [4])?
**A.** Its EC50 is 2 ± 0.1 nM.

**Q.** How did the “ECL1 movement relative to the PfSR10 N-terminus” value (PfSR10 [2]) turn out when `COc1cc(NC(C)CCCN)c2ncccc2c1` (centres unmarked) [PQ, primaquine diphosphate] was run?
**A.** Its value is “inward movement of ECL1 toward the PfSR10 N-terminus”.

**Q.** And the “Gi dissociation downstream of PbSR10” value (PbSR10 [9])?
**A.** Its value is “promoted Gi dissociation”.

**Q.** And the EC50 (PfSR10 [3])?
**A.** Its EC50 is 17.4 ± 4.77 nM.

**Q.** And the “cAMP inhibition Emax” value (PfSR10 [3])?
**A.** Its value is 1.153 ± 0.06 × 10^3.

**Q.** With `N=C(N)NCCC[C@H](N)C(=O)N1CCC[C@H]1C(=O)N1CCC[C@H]1C(=O)NCC(=O)N[C@@H](Cc1ccccc1)C(=O)N[C@@H](CO)C(=O)N1CCC[C@H]1C(=O)N[C@@H](Cc1ccccc1)C(=O)O` [des-Arg9-bradykinin] as the compound, how does the “Gi1 coupling with PfSR10 (in words)” value (PfSR10 [1]) read?
**A.** Its value is “promoted Gi1 coupling to PfSR10”.

**Q.** And the “ECL movements of PfSR10 by FlAsH-BRET sensors (kinin peptides)” value (PfSR10 [2])?
**A.** The value was “movement of ECL1 and ECL3 toward the N-terminus and separation of the ECL2 region and N-terminus of PfSR10”.

**Q.** What about the EC50 (PfSR10 [11]) of the same compound?
**A.** The EC50 was 0.29 ± 0.08 nM.

**Q.** What about the “Fsk-induced cAMP level elevation (in words)” value (PfSR10 [3]) of the same compound?
**A.** The value was “significantly inhibited”.
